The term half-life denotes the time needed for the level to fall by half in the phase considered. Low readings indicate fast loss, high ones slow loss. In general, EC50 refers to the concentration that produces a half-maximal response.

The values below come from patent US9683018B2, “Disulfide cyclic polypeptides for the treatment of heart failure” (priority 2013, dated 2017).

The nature of one series: in vitro. The settings on record: rat, plasma, Surrogate activity-based Plasma stability t½.
Another series deals with T1, hAPJ (Homo sapiens, UniProt P35414).
T1 sequence (P35414 1-380): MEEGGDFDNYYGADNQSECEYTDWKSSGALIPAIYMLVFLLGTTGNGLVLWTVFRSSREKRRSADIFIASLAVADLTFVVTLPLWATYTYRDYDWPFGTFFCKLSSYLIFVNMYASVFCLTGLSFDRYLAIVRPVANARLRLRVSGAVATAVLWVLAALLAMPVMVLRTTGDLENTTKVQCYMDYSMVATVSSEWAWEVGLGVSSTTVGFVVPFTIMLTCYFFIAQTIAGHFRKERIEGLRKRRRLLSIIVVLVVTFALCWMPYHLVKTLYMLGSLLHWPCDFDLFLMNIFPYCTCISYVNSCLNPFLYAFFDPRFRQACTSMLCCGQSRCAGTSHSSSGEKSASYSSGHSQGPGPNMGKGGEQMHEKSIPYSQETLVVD
Kind of series: hAPJ Calcium Flux Assay. It counts as cell-based. The settings on record: Chem-5 APJ stable cells, FLIPR calcium flux; read-out: hAPJ Ca2+ Flux EC50. As for the experimental part:
Chem-5 APJ stable cells (Millipore # HTS068C) were plated in 384-well format with 10,000 cells/well in 25 ul growth media, then grown 24 hours in a 37° C. tissue culture incubator. One hour before the assay, 25 ul/well FLIPR Calcium 4 dye (Molecular Devices R8142) with 2.5 mM probenecid was added, and cells were incubated one hour in a 37° C. tissue culture incubator. Peptides were solubilized in HBSS, HEPES & 0.1% BSA buffer, and serially-diluted 10-fold, from 50 uM to 5 pM, in triplicate. FLIPR Tetra was used to add peptide to the cells with dye (1:5, for final peptide concentrations ranging from 10 uM to 1 pM). FLIPR dye inside the cells emitted fluorescence after binding to calcium, while fluorescence from outside the cells was masked. Fluorescence was measured using 470-495 excitation and 515-575 emission wavelengths on the FLIPR Tetra. Readings were done for 3 minutes total, beginning 10 seconds before the peptide addition. Maximum-minimum values were calculated and plotted for each peptide concentration, and GraphPad prism software was used to calculate EC50 values at the curve inflection points, for calcium flux stimulation by peptides.
(Calcium flux is commonly read through the fluorescence of an indicator in the cells.)

Bridge positions count the residues as written; N and C are the ends. Square brackets hold non-standard residues; d marks the D form. Peptide text beside a SMILES is read from it. pGlu = O=C1CC[C@@H](C(=O)O)N1; d(hCys) = N[C@H](CCS)C(=O)O; dNle = CCCC[C@@H](N)C(=O)O; hCys = N[C@@H](CCS)C(=O)O; Nle = CCCC[C@H](N)C(=O)O; Aib = CC(C)(N)C(=O)O; Inp = O=C(O)C1CCNCC1

Procedure for in vitro: The calcium flux protocol described above was followed, with the following changes. The peptides were also incubated with 5% rat plasma (Bioreclamation # [sequence]-M, Na Heparin-treated). Readings were taken at time points t0 and t24 hrs, after incubation in a 37° C. tissue culture incubator. Peptide plasma half-life in minutes was estimated by calculating the following:
2) Calculate slope of value above and

Take `CCCC[C@H]1NC(=O)[C@@H]2CCCN2C(=O)CNC(=O)[C@H](CCCCN)NC(=O)[C@H](Cc2c[nH]cn2)NC(=O)[C@H](CO)NC(=O)[C@@H](NC(=O)[C@H](CCCNC(=N)N)NC(=O)[C@@H]2CCCN2C(=O)[C@H](CCCNC(=N)N)NC(=O)[C@@H]2CCC(=O)N2)CCSSC[C@@H](C(=O)N[C@H](Cc2ccc(O)cc2)C(=O)O)NC1=O` [Example 2, pE-R-P-R-hC*-S-H-K-G-P-(D-Nle)-C*-y-OH] ([pGlu]RPR[hCys]SHKGP[dNle]C[dY]-OH; disulfide 5-12): in “in vitro”, the half-life was 0.867 h. Besides, the 50% effective concentration (EC50) on hAPJ was 154 nM.
For `CCCC[C@@H]1NC(=O)[C@@H]2CCCN2C(=O)CNC(=O)[C@H](CCCCN)NC(=O)[C@@H](NC(=O)[C@H](CO)NC(=O)[C@H](CC(C)C)NC(=O)[C@H](CCCNC(=N)N)NC(=O)[C@@H]2CCCN2C(=O)[C@H](CCCNC(=N)N)NC(=O)[C@@H]2CCC(=O)N2)CSSCC[C@H](C(=O)N[C@@H](Cc2ccccc2)C(=O)O)NC1=O` [Example 4, pE-R-P-R-L-S-C*-K-G-P-Nle-(D-hC)*-F-OH] ([pGlu]RPRLSCKGP[Nle][d(hCys)]F-OH; disulfide 7-12) the same measures were 0.403 h and 406 nM.
On the same counts, the results for `CCCC[C@@H]1NC(=O)[C@@H]2CCCN2C(=O)CNC(=O)[C@H](CCCCN)NC(=O)[C@H](NC(=O)[C@H](CO)NC(=O)[C@H](CC(C)C)NC(=O)[C@H](CCCNC(=N)N)NC(=O)[C@@H]2CCCN2C(=O)[C@H](CCCNC(=N)N)NC(=O)[C@@H]2CCC(=O)N2)CSSCC[C@H](C(=O)N[C@@H](Cc2ccccc2)C(=O)O)NC1=O` [Example 5, pE-R-P-R-L-S-c*-K-G-P-Nle-(D-hC)*-F-OH] ([pGlu]RPRLS[dC]KGP[Nle][d(hCys)]F-OH; disulfide 7-12) are 23.9 h and 981 nM.
On the same counts, the results for `CCCC[C@@H]1NC(=O)[C@@H]2CCCN2C(=O)CNC(=O)[C@H](CCCCN)NC(=O)[C@@H](NC(=O)[C@H](CO)NC(=O)[C@H](CC(C)C)NC(=O)[C@H](CCCNC(=N)N)NC(=O)[C@@H]2CCCN2C(=O)[C@H](CCCNC(=N)N)NC(=O)[C@@H]2CCC(=O)N2)CCSSCC[C@H](C(=O)N[C@@H](Cc2ccccc2)C(=O)O)NC1=O` [Example 6, pE-R-P-R-L-S-hC*-K-G-P-Nle-(D-hC)*-F-OH] ([pGlu]RPRLS[hCys]KGP[Nle][d(hCys)]F-OH; disulfide 7-12) are 0.208 h and 92.8 nM.
In “in vitro”, `CCCC[C@@H]1NC(=O)[C@@H]2CCCN2C(=O)CNC(=O)[C@H](CCCCN)NC(=O)[C@H](NC(=O)[C@H](CO)NC(=O)[C@H](CC(C)C)NC(=O)[C@H](CCCNC(=N)N)NC(=O)[C@@H]2CCCN2C(=O)[C@H](CCCNC(=N)N)NC(=O)[C@@H]2CCC(=O)N2)CCSSCC[C@H](C(=O)N[C@@H](Cc2ccccc2)C(=O)O)NC1=O` [Example 7, pE-R-P-R-L-S-(D-hC)*-K-G-P-Nle-(D-hC)*-F-OH] ([pGlu]RPRLS[d(hCys)]KGP[Nle][d(hCys)]F-OH; disulfide 7-12) gave a half-life of 2.01 h. Also, the concentration for a half-maximal effect (EC50) on hAPJ is 781 nM.
On the same counts, the results for `CCCC[C@@H]1NC(=O)[C@@H]2CCCN2C(=O)CNC(=O)[C@H](CCCCN)NC(=O)[C@H](NC(=O)[C@H](CO)NC(=O)[C@H](CC(C)C)NC(=O)[C@H](CCCNC(=N)N)NC(=O)[C@@H]2CCCN2C(=O)[C@H](CCCNC(=N)N)NC(=O)[C@@H]2CCC(=O)N2)CCSSC[C@@H](C(=O)N[C@@H](Cc2ccccc2)C(=O)O)NC1=O` [Example 8, pE-R-P-R-L-S-(D-hC)*-K-G-P-Nle-C*-F-OH] ([pGlu]RPRLS[d(hCys)]KGP[Nle]CF-OH; disulfide 7-12) are 1.29 h and 613 nM.
For `CCCC[C@@H]1NC(=O)[C@@H]2CCCN2C(=O)CNC(=O)[C@H](CCCCN)NC(=O)[C@H](NC(=O)[C@H](CO)NC(=O)[C@H](CC(C)C)NC(=O)[C@H](CCCNC(=N)N)NC(=O)[C@@H]2CCCN2C(=O)[C@H](CCCNC(=N)N)NC(=O)[C@@H]2CCC(=O)N2)CCSSCC[C@@H](C(=O)N[C@@H](Cc2ccccc2)C(=O)O)NC1=O` [Example 9, pE-R-P-R-L-S-(D-hC)*-K-G-P-Nle-hC*-F-OH] ([pGlu]RPRLS[d(hCys)]KGP[Nle][hCys]F-OH; disulfide 7-12) the same measures were 0.95 h and 1030 nM.
Regarding `CCCC[C@@H]1NC(=O)[C@@H]2CCCN2C(=O)CNC(=O)[C@H](CCCCN)NC(=O)[C@H](NC(=O)[C@H](CO)NC(=O)[C@H](CC(C)C)NC(=O)[C@H](CCCNC(=N)N)NC(=O)[C@@H]2CCCN2C(=O)[C@H](CCCNC(=N)N)NC(=O)[C@@H]2CCC(=O)N2)CCSSC[C@@H](C(=O)O)NC1=O` [Example 10, pE-R-P-R-L-S-(D-hC)*-K-G-P-Nle-C*-OH] ([pGlu]RPRLS[d(hCys)]KGP[Nle]C-OH; disulfide 7-12), the half-life in “in vitro” is 1.64 h. In addition, the EC50 on hAPJ was found to be 976 nM.
On the same counts, the results for `CCCC[C@@H]1NC(=O)[C@@H]2CCCN2C(=O)CNC(=O)[C@H](CCCCN)NC(=O)[C@@H](NC(=O)[C@H](CO)NC(=O)[C@H](CC(C)C)NC(=O)[C@H](CCCNC(=N)N)NC(=O)[C@@H]2CCCN2C(=O)[C@H](CCCNC(=N)N)NC(=O)[C@@H]2CCC(=O)N2)CSSC[C@H](C(=O)N[C@@H](Cc2ccccc2)C(=O)O)NC1=O` [Example 11, pE-R-P-R-L-S-C*-K-G-P-Nle-c*-F-OH] ([pGlu]RPRLSCKGP[Nle][dC]F-OH; disulfide 7-12) are 2.28 h and 113 nM.
On the same counts, the results for `CCCC[C@@H]1NC(=O)[C@@H]2CCCN2C(=O)CNC(=O)[C@H](CCCCN)NC(=O)[C@@H](NC(=O)[C@H](CO)NC(=O)[C@H](CC(C)C)NC(=O)[C@H](CCCNC(=N)N)NC(=O)[C@@H]2CCCN2C(=O)[C@H](CCCNC(=N)N)NC(=O)[C@@H]2CCC(=O)N2)CSSCC[C@@H](C(=O)N[C@@H](Cc2ccccc2)C(=O)O)NC1=O` [Example 12, pE-R-P-R-L-S-C*-K-G-P-Nle-hC*-F-OH] ([pGlu]RPRLSCKGP[Nle][hCys]F-OH; disulfide 7-12) are 1.17 h and 81.7 nM.
Compound `CCCC[C@@H]1NC(=O)[C@@H]2CCCN2C(=O)CNC(=O)[C@H](CCCCN)NC(=O)[C@@H](NC(=O)[C@H](CO)NC(=O)[C@H](CC(C)C)NC(=O)[C@H](CCCNC(=N)N)NC(=O)[C@@H]2CCCN2C(=O)[C@H](CCCNC(=N)N)NC(=O)[C@@H]2CCC(=O)N2)CCSSCC[C@@H](C(=O)N[C@@H](Cc2ccccc2)C(=O)O)NC1=O` [Example 13, pE-R-P-R-L-S-hC*-K-G-P-Nle-hC*-F-OH] ([pGlu]RPRLS[hCys]KGP[Nle][hCys]F-OH; disulfide 7-12) displayed a half-life in the series “in vitro” of 1.73 h. Further, the EC50 on hAPJ is 760 nM.
On the same counts, the results for `CCCC[C@@H]1NC(=O)[C@@H]2CCCN2C(=O)[C@@H](NC(=O)[C@H](CCCCN)NC(=O)[C@@H](C)NC(=O)[C@H](CO)NC(=O)[C@H](CC(C)C)NC(=O)[C@H](CCCNC(=N)N)NC(=O)[C@@H]2CCCN2C(=O)[C@H](CCCNC(=N)N)NC(=O)[C@@H]2CCC(=O)N2)CSSC[C@@H](C(=O)N[C@H](Cc2ccccc2)C(=O)O)NC1=O` [Example 16, pE-R-P-R-L-S-a-K-C*-P-Nle-C*-f-OH] ([pGlu]RPRLS[dA]KCP[Nle]C[dF]-OH; disulfide 9-12) are 5.38 h and 33.2 nM.
On the same counts, the results for `CCCC[C@@H]1NC(=O)[C@@H]2CCCN2C(=O)[C@@H](NC(=O)[C@H](CCCCN)NC(=O)[C@H](Cc2c[nH]cn2)NC(=O)[C@@H](C)NC(=O)[C@H](CC(C)C)NC(=O)[C@H](CCCNC(=N)N)NC(=O)[C@@H]2CCCN2C(=O)[C@H](CCCNC(=N)N)NC(=O)C2CCNCC2)CSSC[C@@H](C(=O)N[C@H](Cc2ccccc2)C(=O)O)NC1=O` [Example 18, Isonipecotoyl-R-P-R-L-a-H-K-C*-P-Nle-C*-f-OH] (H-[Inp]RPRL[dA]HKCP[Nle]C[dF]-OH; disulfide 9-12) are 16.5 h and 2.3 nM.
Take `CCCC[C@@H]1NC(=O)[C@@H]2CCCN2C(=O)[C@@H](NC(=O)[C@H](CCCCN)NC(=O)C(C)(C)NC(=O)[C@@H](C)NC(=O)[C@H](CC(C)C)NC(=O)[C@H](CCCNC(=N)N)NC(=O)[C@@H]2CCCN2C(=O)[C@H](CCCNC(=N)N)NC(=O)[C@@H]2CCC(=O)N2)CSSC[C@@H](C(=O)N[C@H](Cc2ccccc2)C(=O)O)NC1=O` [Example 19, pE-R-P-R-L-a-Aib-K-C*-P-Nle-C*-f-OH] ([pGlu]RPRL[dA][Aib]KCP[Nle]C[dF]-OH; disulfide 9-12): the half-life in “in vitro” was determined as 36.4 h. Further, the half-maximal effective concentration (EC50) at hAPJ turned out to be 72.3 nM.
On the same counts, the results for `CCCC[C@@H]1NC(=O)[C@@H]2CCCN2C(=O)[C@@H](NC(=O)[C@H](CCCCN)NC(=O)C(C)(C)NC(=O)[C@H](CO)NC(=O)[C@H](CC(C)C)NC(=O)[C@H](CCCNC(=N)N)NC(=O)[C@@H]2CCCN2C(=O)[C@H](CCCNC(=N)N)NC(=O)[C@@H]2CCC(=O)N2)CSSC[C@@H](C(=O)N[C@H](Cc2ccccc2)C(=O)O)NC1=O` [Example 20, pE-R-P-R-L-S-Aib-K-C*-P-Nle-C*-f-OH] ([pGlu]RPRLS[Aib]KCP[Nle]C[dF]-OH; disulfide 9-12) are 5.52 h and 6.1 nM.
